Source: the CheMixHub ionic liquid set
“And” between values parts separate entries of the source, which are not always exact repeats. Equal entries are not always repeated.

Experiment: xn = mol fraction of the nth substance listed

C[N+](C)(C)CCO.O=S(=O)([N-]S(=O)(=O)C(F)(F)F)C(F)(F)F + OCCOCCOCCOCCO
Details	viscosity [mPa·s]
298.15 K, 101 kPa, x2 = 0	144.8

CC(=O)O.CC(=O)[O-].CC[NH+](CC)CCO + CCCC[n+]1ccn(C)c1.COP(=O)([O-])OC
101 kPa
Details	viscosity [mPa·s]
278.15 K, x1 = 0.3316	453
278.15 K, x1 = 0.5275	335
283.15 K, x1 = 0.7493	220
288.15 K, x1 = 0.5275	168.3
293.15 K, x1 = 0.0748	568
293.15 K, x1 = 0.7493	116.3
298.15 K, x1 = 0.5275	93.7
298.15 K, x1 = 0.6343	91.1
298.15 K, x1 = 0.8567	76.9
303.15 K, x1 = 0.0748	283.6
303.15 K, x1 = 1	59.6
308.15 K, x1 = 0.3316	74.6
308.15 K, x1 = 0.7493	53.4
313.15 K, x1 = 0.5275	44.19
313.15 K, x1 = 0.6343	42.6
318.15 K, x1 = 0.8567	27.56
323.15 K, x1 = 0.5275	30.28
323.15 K, x1 = 0.6343	29.17
323.15 K, x1 = 0.8567	22.27
328.15 K, x1 = 0.0748	73.3
328.15 K, x1 = 0.4263	27.4
328.15 K, x1 = 0.7493	23.34
333.15 K, x1 = 0.6343	18.02
333.15 K, x1 = 0.7493	17.41
338.15 K, x1 = 0.0748	47.83
343.15 K, x1 = 0.7493	13.68
348.15 K, x1 = 0.6343	12.02
348.15 K, x1 = 1	8.93
358.15 K, x1 = 0.5275	9.3
358.15 K, x1 = 0.8567	6.94
358.15 K, x1 = 1	6.65
363.15 K, x1 = 1	5.8
368.15 K, x1 = 0.5275	7.03
368.15 K, x1 = 0.6343	6.64

CC[NH3+].O=[N+]([O-])[O-] + O
Details	viscosity
288.15 K, 101.33 kPa, x2 = 0.574	5.43 mPa·s and 7.928 mPa·s
293.15 K, 100 kPa, x2 = 0.1088	20.97 mPa·s
293.15 K, 100 kPa, x2 = 0.3682	7.63 mPa·s
293.15 K, 100 kPa, x2 = 0.47	6.34 mPa·s
293.15 K, 100 kPa, x2 = 0.579	5.03 mPa·s
293.15 K, 101.33 kPa, x2 = 0.574	4.86 mPa·s and 7.175 mPa·s
298 K, 101 kPa, x2 = 0.7	3.42 mPa·s
298 K, 101 kPa, x2 = 0.95	1.15 mPa·s
298.15 K, 100 kPa, x2 = 0.7889	2.16 mPa·s
298.15 K, 100 kPa, x2 = 0.8895	1.48 mPa·s
298.15 K, 101.33 kPa, x2 = 0.574	4.415 mPa·s and 6.559 mPa·s
303.15 K, 100 kPa, x2 = 0.1088	15.74 mPa·s
303.15 K, 100 kPa, x2 = 0.2597	7.78 mPa·s
303.15 K, 100 kPa, x2 = 0.7889	1.95 mPa·s
303.15 K, 100 kPa, x2 = 0.8895	1.34 mPa·s
303.15 K, 101.33 kPa, x2 = 0.574	3.953 mPa·s and 5.989 mPa·s
308.15 K, 100 kPa, x2 = 0.1088	13.76 mPa·s
308.15 K, 100 kPa, x2 = 0.47	4.52 mPa·s
308.15 K, 101.33 kPa, x2 = 0.574	3.571 mPa·s and 5.567 mPa·s
313.15 K, 100 kPa, x2 = 0	22.67 mPa·s
313.15 K, 100 kPa, x2 = 0.579	3.26 mPa·s
313.15 K, 101.33 kPa, x2 = 0.574	3.247 mPa·s and 5.268 mPa·s
318.15 K, 100 kPa, x2 = 0.47	3.71 mPa·s
318.15 K, 100 kPa, x2 = 0.7889	1.49 mPa·s
318.15 K, 101.33 kPa, x2 = 0.574	2.96 mPa·s and 4.826 mPa·s
323.15 K, 101.33 kPa, x2 = 0.574	2.709 mPa·s and 4.535 mPa·s
328.15 K, 101.33 kPa, x2 = 0.574	2.479 mPa·s and 4.213 mPa·s
333.15 K, 101.33 kPa, x2 = 0.574	2.281 mPa·s and 4.065 mPa·s
338.15 K, 101.33 kPa, x2 = 0.574	2.102 mPa·s and 3.912 mPa·s
343.15 K, 101.33 kPa, x2 = 0.574	1.945 mPa·s

CCCCCCCCn1cc[n+](C)c1.[Cl-] + CO
101 kPa
Details	viscosity [mPa·s]
298.15 K, x1 = 0.0197	0.729
298.15 K, x2 = 0.3525	530
298.15 K, x2 = 0.4395	237
298.15 K, x2 = 0.5589	64.1
298.15 K, x2 = 0.8713	2.39
298.15 K, x2 = 0.8813	2.205
313.15 K, x2 = 0.5589	34.97
313.15 K, x2 = 0.8231	3.58
328.15 K, x2 = 0.4395	55.2
328.15 K, x2 = 0.8231	2.496

CCCCCCCCCCCC[N+](C)(C)C.[Br-] + CCCCCCCCCCCCCCCC[n+]1ccn(C)c1.[Cl-] + O
100 kPa, frequency 0.002 MHz
Details	electrical conductivity [S/m]
303.15 K, x2 = 0, x1 = 0.0001836	0.105
313.15 K, x2 = 0, x1 = 0.0003475	0.207
323.15 K, x2 = 0, x1 = 0.0001544	0.129

CC[n+]1ccn(C)c1.N#C[S-] + [N-]=C=S.[NH4+]
100 kPa, x2 = 0
Details	electrical conductivity [S/m]	viscosity [mPa·s]
323.15 K	4.38	11.49
348.15 K	–	6.87
353.15 K	–	6.17

N + CCCC[n+]1ccn(C)c1.O=S(=O)([N-]S(=O)(=O)C(F)(F)F)C(F)(F)F
313.2 K, 101 kPa
Details	viscosity [mPa·s]
x2 = 0.7997	20.1
x2 = 0.8338	21.7
x2 = 0.8696	22
x2 = 0.9099	23.1
x2 = 0.9541	25.1

CCCCCCCCn1cc[n+](C)c1.N#C[S-] + [Cl-].[Li+] + CN1CCCC1=O
298.15 K, 101 kPa
Details	viscosity [mPa·s]
x1 = 0.001139, x2 = 0.07166	3.748
x1 = 0.001259, x2 = 0.03751	2.694
x1 = 0.001303, x2 = 0.1042	5.098
x1 = 0.002343, x2 = 0.1041	5.122
x1 = 0.002465, x2 = 0.07157	3.763
x1 = 0.002516, x2 = 0.03747	2.708
x1 = 0.00365, x2 = 0.104	5.151
x1 = 0.003672, x2 = 0.03742	2.735
x1 = 0.003977, x2 = 0.07146	3.796
x1 = 0.004888, x2 = 0.1039	5.175
x1 = 0.005019, x2 = 0.03737	2.761
x1 = 0.005107, x2 = 0.07138	3.83
x1 = 0.00605, x2 = 0.1038	5.201
x1 = 0.006235, x2 = 0.0713	3.857
x1 = 0.006361, x2 = 0.03732	2.789
x1 = 0.007163, x2 = 0.1036	5.219
x1 = 0.00736, x2 = 0.07122	3.892
x1 = 0.007605, x2 = 0.03728	2.811
x1 = 0.00842, x2 = 0.1035	5.236
x1 = 0.00867, x2 = 0.07112	3.932
x1 = 0.008845, x2 = 0.03723	2.84
x1 = 0.009774, x2 = 0.1034	5.256
x1 = 0.009789, x2 = 0.07104	3.97
x1 = 0.01008, x2 = 0.03718	2.854

CCCCCCCCCC(=O)O + CCCC[N+](CCCC)(CCCC)CCCC.[Cl-]
100 kPa
Details	electrical conductivity, x2 = 0.25 [S/m]	viscosity, x2 = 0.25 [mPa·s]	viscosity, x2 = 0.333 [mPa·s]
293.15 K	0.00575	201	–
303.15 K	0.00886	135	–
313.15 K	0.0133	93.3	155
323.15 K	0.0194	65.9	–
333.15 K	0.0277	47.5	–
343.15 K	–	–	39.5

CC[NH3+].O=[N+]([O-])[O-] + CC#N
100 kPa
Details	electrical conductivity [S/m]	viscosity [mPa·s]
278 K, x1 = 0.3	2.52	–
288 K, x1 = 0.7	2.71	–
288.08 K, x1 = 0.7	–	20.78
288.08 K, x1 = 0.98	–	43.7
288.09 K, x1 = 0.3	–	3.15
293.09 K, x1 = 0.3	–	2.819
298 K, x1 = 0.7	3.71	14.73
298.1 K, x1 = 0.98	–	33.2
298.14 K, x1 = 0.2	–	1.406
308 K, x1 = 0.2	5.19	–
308 K, x1 = 0.7	4.94	–
308.09 K, x1 = 0.8	–	14.76
308.11 K, x1 = 0.9	–	20.7
308.12 K, x1 = 0.6	–	7.76
308.14 K, x1 = 0.7	–	10.53
308.15 K, x1 = 0.3	–	2.292

CCCCn1cc[n+](C)c1C.C[C@@H](O)[C@H](N)C(=O)[O-] + O
100 kPa
Details	viscosity [mPa·s]
288.15 K, x1 = 0.4927	331
293.15 K, x1 = 0.2985	102
293.15 K, x1 = 0.7003	447
298.15 K, x1 = 0.7003	307
298.15 K, x1 = 0.8001	402
308.15 K, x1 = 0.1919	24.8
308.15 K, x1 = 0.4004	63
308.15 K, x1 = 0.599	122
308.15 K, x1 = 0.8001	199
313.15 K, x1 = 0.2985	26.1
313.15 K, x1 = 0.599	78
318.15 K, x1 = 0.2985	21.5
318.15 K, x1 = 0.4004	33.1
318.15 K, x1 = 0.4927	45.9
318.15 K, x1 = 0.7003	77
318.15 K, x1 = 0.8001	92

CCCCCCCCCCCC[N+]1(C)CCCCC1.O=C([O-])c1ccccc1O + O
electrical conductivity [S/m], 100 kPa
Details	x1 = 3.55e-06	x1 = 8.89e-06	x1 = 2.712e-05
298.15 K	0.00167	–	0.0079
328.15 K	–	0.0063	–

CCCCn1n[n+](CC)c2ccccc21.F[P-](F)(F)(F)(F)F + c1c[nH]cn1
101.3 kPa, x2 = 0.6993
Details	electrical conductivity [S/m]	viscosity [mPa·s]
343 K	1.1	11
353 K	1.4	7.7
363 K	1.8	5.6
373 K	2.2	5.2
383.1 K	2.9	4.2
393.1 K	3.2	3.6
403.1 K	3.8	3.1

C[P+](c1ccccc1)(c1ccccc1)c1ccccc1.[Br-] + CC(=O)O
Details	viscosity [mPa·s]
298.2 K, 101 kPa, x1 = 0.2	74.5

CCCC[P+](CCCC)(CCCC)CCCC.F[B-](F)(F)F + C1CCOC1
298.15 K, 100 kPa
Details	viscosity [mPa·s]
x1 = 0.0008214	0.468
x1 = 0.001232	0.473
x1 = 0.001649	0.478
x1 = 0.002058	0.483
x1 = 0.002474	0.489
x1 = 0.002883	0.495
